From patent publication US10206394B2, “Herbicidal compounds” (Syngenta Participations AG, priority 2014, dated 2019) come the findings set out here.

SMILES strings stand for the structures. Like-named read-outs stand apart in the source and are kept apart here.

Experiment in all cases: Glasshouse assay for herbicidal activity (pre- and post-emergence), percentage phytotoxicity
Common to all, as to assay type: in vivo

Assay [1] concerns Alopecurus myosuroides (ALOMY). As to conditions: Alopecurus myosuroides. The procedure, abridged: (§1)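 Visually rated damage, 0–100%. PRE spray 1 d after sowing, scored 20 DAA; POST spray ~12 d, scored 15 DAA. Glasshouse at 65% humidity, 16 h day.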
In another assay the test system is Avena fatua (AVEFA). As to conditions: Avena fatua. In short, it runs like this: as §1
Assay [2] deals with Echinochloa crus-galli (ECHCG). As to conditions: Echinochloa crus-galli. In short, it runs like this:
as §1

A further assay deals with Lolium perenne (LOLPE). Particulars: Lolium perenne. In short, it runs like this: as §1
[3] abbreviates: post-emergence, 360 h, Rate 250 g/ha, post-emergence, assessed visually 15 DAA, 100%=total damage, 0%=no damage, read-out: Post-emergence herbicidal activity (percentage phytotoxicity) ALOMY POST.
The mark [4] stands for this setting: pre-emergence, 480 h, Rate 250 g/ha, pre-emergence, assessed visually 20 DAA, 100%=total damage, 0%=no damage, read-out: Pre-emergence herbicidal activity (percentage phytotoxicity) ALOMY PRE.
Setting [5] is: post-emergence, 360 h, Rate 250 g/ha, post-emergence, assessed visually 15 DAA, 100%=total damage, 0%=no damage, read-out: Post-emergence herbicidal activity (percentage phytotoxicity) AVEFA POST.
The mark [6] stands for this setting: pre-emergence, 480 h, Rate 250 g/ha, pre-emergence, assessed visually 20 DAA, 100%=total damage, 0%=no damage, read-out: Pre-emergence herbicidal activity (percentage phytotoxicity) AVEFA PRE.
Where [7] appears, read: post-emergence, 360 h, Rate 250 g/ha, post-emergence, assessed visually 15 DAA, 100%=total damage, 0%=no damage, read-out: Post-emergence herbicidal activity (percentage phytotoxicity) ECHCG POST.
Where [8] appears, read: pre-emergence, 480 h, Rate 250 g/ha, pre-emergence, assessed visually 20 DAA, 100%=total damage, 0%=no damage, read-out: Pre-emergence herbicidal activity (percentage phytotoxicity) ECHCG PRE.
Setting [9] is: post-emergence, 360 h, Rate 250 g/ha, post-emergence, assessed visually 15 DAA, 100%=total damage, 0%=no damage, read-out: Post-emergence herbicidal activity (percentage phytotoxicity) LOLPE POST.
[10] abbreviates: pre-emergence, 480 h, Rate 250 g/ha, pre-emergence, assessed visually 20 DAA, 100%=total damage, 0%=no damage, read-out: Pre-emergence herbicidal activity (percentage phytotoxicity) LOLPE PRE.
[11] abbreviates: post-emergence, 360 h, 250 g/ha, post-emergence, 15 DAA, visual assessment (100%=total damage, 0%=no damage), read-out: Post-emergence herbicidal activity (percentage phytotoxicity) ALOMY POST.
Where [12] appears, read: pre-emergence, 480 h, 250 g/ha, pre-emergence, 20 DAA, visual assessment (100%=total damage, 0%=no damage), read-out: Pre-emergence herbicidal activity (percentage phytotoxicity) ALOMY PRE.
The mark [13] stands for this setting: post-emergence, 360 h, 250 g/ha, post-emergence, 15 DAA, visual assessment (100%=total damage, 0%=no damage), read-out: Post-emergence herbicidal activity (percentage phytotoxicity) AVEFA POST.
Where [14] appears, read: pre-emergence, 480 h, 250 g/ha, pre-emergence, 20 DAA, visual assessment (100%=total damage, 0%=no damage), read-out: Pre-emergence herbicidal activity (percentage phytotoxicity) AVEFA PRE.
Setting [15] is: post-emergence, 360 h, 250 g/ha, post-emergence, 15 DAA, visual assessment (100%=total damage, 0%=no damage), read-out: Post-emergence herbicidal activity (percentage phytotoxicity) ECHCG POST.
Where [16] appears, read: pre-emergence, 480 h, 250 g/ha, pre-emergence, 20 DAA, visual assessment (100%=total damage, 0%=no damage), read-out: Pre-emergence herbicidal activity (percentage phytotoxicity) ECHCG PRE.
Where [17] appears, read: post-emergence, 360 h, 250 g/ha, post-emergence, 15 DAA, visual assessment (100%=total damage, 0%=no damage), read-out: Post-emergence herbicidal activity (percentage phytotoxicity) LOLPE POST.
[18] abbreviates: pre-emergence, 480 h, 250 g/ha, pre-emergence, 20 DAA, visual assessment (100%=total damage, 0%=no damage), read-out: Pre-emergence herbicidal activity (percentage phytotoxicity) LOLPE PRE.
Setting [19] is: post-emergence, 360 h, POST-emergence, rate 250 g/ha, visual score 15 DAA (100%=total damage, 0%=no damage), read-out: Post-emergence herbicidal activity (percentage phytotoxicity) ALOMY POST.
Where [20] appears, read: pre-emergence, 480 h, PRE-emergence, rate 250 g/ha, visual score 20 DAA (100%=total damage, 0%=no damage), read-out: Pre-emergence herbicidal activity (percentage phytotoxicity) ALOMY PRE.
[21] abbreviates: post-emergence, 360 h, POST-emergence, rate 250 g/ha, visual score 15 DAA (100%=total damage, 0%=no damage), read-out: Post-emergence herbicidal activity (percentage phytotoxicity) AVEFA POST.
The mark [22] stands for this setting: pre-emergence, 480 h, PRE-emergence, rate 250 g/ha, visual score 20 DAA (100%=total damage, 0%=no damage), read-out: Pre-emergence herbicidal activity (percentage phytotoxicity) AVEFA PRE.
[23] abbreviates: post-emergence, 360 h, POST-emergence, rate 250 g/ha, visual score 15 DAA (100%=total damage, 0%=no damage), read-out: Post-emergence herbicidal activity (percentage phytotoxicity) ECHCG POST.
Where [24] appears, read: pre-emergence, 480 h, PRE-emergence, rate 250 g/ha, visual score 20 DAA (100%=total damage, 0%=no damage), read-out: Pre-emergence herbicidal activity (percentage phytotoxicity) ECHCG PRE.
Where [25] appears, read: post-emergence, 360 h, POST-emergence, rate 250 g/ha, visual score 15 DAA (100%=total damage, 0%=no damage), read-out: Post-emergence herbicidal activity (percentage phytotoxicity) LOLPE POST.
The mark [26] stands for this setting: pre-emergence, 480 h, PRE-emergence, rate 250 g/ha, visual score 20 DAA (100%=total damage, 0%=no damage), read-out: Pre-emergence herbicidal activity (percentage phytotoxicity) LOLPE PRE.

`Cc1cc(-c2ncc(Cl)cc2F)cc(C)c1C1C(=O)CC(CC(=O)NCc2ccc(C(F)(F)F)nc2)C1=O` (stereo not drawn) [Compound A115]: the pest or weed control at 250 g/ha is 100% in assay [1] (setting [3]); 90% in assay [1] (setting [4]); 100% in the assay on Avena fatua (AVEFA) (setting [5]); 90% in the assay on Avena fatua (AVEFA) (setting [6]); 100% in assay [2] (setting [7]); 90% in assay [2] (setting [8]). Further, the pest or weed control at 250 g/ha with Lolium perenne (LOLPE) (setting [9]) came to 100%; in the assay on Lolium perenne (LOLPE) (setting [10]) it was 90%.
In the case of `C/C=C/CNC(=O)CC1CC(=O)C(c2c(C)cc(-c3ncc(Cl)cc3F)cc2C)C1=O` (stereo not drawn) [Compound B161], the pest or weed control at 250 g/ha in assay [1] (setting [11]) stood at 100%; in assay [1] (setting [12]) it was 90%; in the assay on Avena fatua (AVEFA) (setting [13]), 100%; with Avena fatua (AVEFA) (setting [14]) it was 80%; in assay [2] (setting [15]), 100%; in assay [2] (setting [16]), 90%. Further, the pest or weed control at 250 g/ha with Lolium perenne (LOLPE) (setting [17]) and in the assay on Lolium perenne (LOLPE) (setting [18]) was 100% throughout.
For the compound `C=CCNC(=O)CC1CC(=O)C(c2c(C)cc(C#CC)cc2C)C1=O` (stereo not drawn) [Compound B157], the pest or weed control at 250 g/ha was 100% in assay [1] (setting [11]); 100% in assay [1] (setting [12]); 100% with Avena fatua (AVEFA) (setting [13]); 90% in the assay on Avena fatua (AVEFA) (setting [14]); 100% in assay [2] (setting [15]); 100% in assay [2] (setting [16]). The pest or weed control at 250 g/ha in the assay with Lolium perenne (LOLPE) (setting [17]) and with Lolium perenne (LOLPE) (setting [18]) was 100% in each case.
`Cc1cc(C)c(C2C(=O)CC(CC(=O)NCc3ccc(C(F)(F)F)nc3)C2=O)c(C)c1` (stereo not drawn) [Compound A98]: the pest or weed control at 250 g/ha in assay [1] (setting [3]) is 90%; in assay [1] (setting [4]) it was 100%; in the assay on Avena fatua (AVEFA) (setting [5]), 90%; in the assay with Avena fatua (AVEFA) (setting [6]), 20%; in assay [2] (setting [7]) it was 60%; in assay [2] (setting [8]) it was 80%. For the same compound, the pest or weed control at 250 g/ha in the assay with Lolium perenne (LOLPE) (setting [9]) and with Lolium perenne (LOLPE) (setting [10]) was 80% throughout.
As to `Cc1cc(C)c(C2C(=O)CC(CC(=O)NCC3CSC3)C2=O)c(C)c1` (stereo not drawn) [Compound A174], the pest or weed control at 250 g/ha came to 40% in assay [1] (post-emergence, 360 h, post-emergence, 250 g/ha, 15 DAA, visual score (100%=total damage; 0%=no damage), read-out: ALOMY POST herbicidal activity (percentage phytotoxicity)); 0% in the assay on Avena fatua (AVEFA) (post-emergence, 360 h, post-emergence, 250 g/ha, 15 DAA, visual score (100%=total damage; 0%=no damage), read-out: AVEFA POST herbicidal activity (percentage phytotoxicity)); 10% in assay [2] (post-emergence, 360 h, post-emergence, 250 g/ha, 15 DAA, visual score (100%=total damage; 0%=no damage), read-out: ECHCG POST herbicidal activity (percentage phytotoxicity)); 0% in the assay with Lolium perenne (LOLPE) (post-emergence, 360 h, post-emergence, 250 g/ha, 15 DAA, visual score (100%=total damage; 0%=no damage), read-out: LOLPE POST herbicidal activity (percentage phytotoxicity)).
As for `COCC(C)NC(=O)CC1CC(=O)C(c2c(C)cc(-n3cc(Cl)cn3)cc2C)C1=O` (stereo not drawn) [Compound B309], the pest or weed control at 250 g/ha turned out to be 100% in assay [1] (setting [19]); 90% in assay [1] (setting [20]); 100% in the assay on Avena fatua (AVEFA) (setting [21]); 80% in the assay on Avena fatua (AVEFA) (setting [22]); 100% in assay [2] (setting [23]); 100% in assay [2] (setting [24]). Also, the pest or weed control at 250 g/ha with Lolium perenne (LOLPE) (setting [25]) is 60%; with Lolium perenne (LOLPE) (setting [26]), 80%.
Take `Cc1cc(C)c(C2C(=O)CC(CC(=O)NCc3ncc(C)s3)C2=O)c(C)c1` (stereo not drawn) [Compound A105]: the pest or weed control at 250 g/ha in assay [1] (setting [3]) is 80%; in assay [1] (setting [4]), 80%; in the assay with Avena fatua (AVEFA) (setting [5]) it was 0%; in the assay on Avena fatua (AVEFA) (setting [6]), 20%; in assay [2] (setting [7]) it was 60%; in assay [2] (setting [8]), 70%. Besides, the pest or weed control at 250 g/ha with Lolium perenne (LOLPE) (setting [9]) and in the assay on Lolium perenne (LOLPE) (setting [10]) was 70% each time.
Consider `C#CC(C)(C)NC(=O)CC1CC(=O)C(c2c(C)cc(-c3ncc(F)cn3)cc2C)C1=O` (stereo not drawn) [Compound B113], for which the pest or weed control at 250 g/ha in assay [1] (setting [11]) came out at 100%; in assay [1] (setting [12]) it was 90%; in the assay on Avena fatua (AVEFA) (setting [13]), 100%; in the assay with Avena fatua (AVEFA) (setting [14]), 90%; in assay [2] (setting [15]) it was 100%; in assay [2] (setting [16]), 100%. For the same compound, the pest or weed control at 250 g/ha in the assay on Lolium perenne (LOLPE) (setting [17]) was 100%; in the assay on Lolium perenne (LOLPE) (setting [18]), 90%.
For the compound `Cc1cc(-c2ncc(Cl)cc2F)cc(C)c1C1C(=O)CC(CC(=O)NCCF)C1=O` (stereo not drawn) [Compound B95], the pest or weed control at 250 g/ha (in assay [1] (setting [11]); in assay [1] (setting [12]); in the assay on Avena fatua (AVEFA) (setting [13]); with Avena fatua (AVEFA) (setting [14]); in assay [2] (setting [15]); in assay [2] (setting [16])) was 100% each time. In addition, the pest or weed control at 250 g/ha in the assay with Lolium perenne (LOLPE) (setting [17]) and in the assay with Lolium perenne (LOLPE) (setting [18]) was 100% each time.
With `Cc1cc(OCC(F)(F)F)cc(C)c1C1C(=O)CC(CC(=O)NCc2ccc(C#N)cc2)C1=O` (stereo not drawn) [Compound B207], the pest or weed control at 250 g/ha in assay [1] (setting [19]) is 80%; in assay [1] (setting [20]) it was 40%; in the assay with Avena fatua (AVEFA) (setting [21]), 50%; with Avena fatua (AVEFA) (setting [22]), 0%; in assay [2] (setting [23]) it was 90%; in assay [2] (setting [24]) it was 40%. The pest or weed control at 250 g/ha in the assay on Lolium perenne (LOLPE) (setting [25]) worked out at 60%; in the assay with Lolium perenne (LOLPE) (setting [26]) it was 10%.
For `Cc1cc(-c2ccc(Cl)cn2)cc(C)c1C1C(=O)CC(CC(=O)NCc2cccc(Cl)c2)C1=O` (stereo not drawn) [Compound A134], the pest or weed control at 250 g/ha in assay [1] (setting [3]) stood at 90%; in assay [1] (setting [4]), 70%; in the assay on Avena fatua (AVEFA) (setting [5]) it was 90%; in the assay with Avena fatua (AVEFA) (setting [6]) it was 90%; in assay [2] (setting [7]) it was 100%; in assay [2] (setting [8]), 90%. Besides, the pest or weed control at 250 g/ha in the assay with Lolium perenne (LOLPE) (setting [9]) turned out to be 100%; in the assay on Lolium perenne (LOLPE) (setting [10]) it was 80%.
